Assay results as given in patent publication US12030908B2, “Antimicrobial compounds, compositions, and uses thereof” (Lakewood Amedex, Inc., priority 2017, dated 2024).
In brackets after ≈: the same amount, converted by molar mass. Where two headings read alike, the source gives them in different places.

What was measured:
pKa measurement = type: physicochemical; settings: read-out: pKa
[1] = tested on: Escherichia coli (strain CFT073, TPPS 1041); assay: Initial urinary tract infection model in BALB/c mice, transurethral treatment (Example 9); type: in vivo; settings: 50 mg/kg transurethral 24 hr post-challenge; 60 minutes post-treatment
Text: Female BALB/c mice (20-22 g) ordered from Envigo are acclimated to housing conditions and handled in accordance with Animal Use Protocol (AUP) number TP-08. Animals are fed irradiated Teklad Global 29 18 Rodent Diet and water ad libitum. Mice are housed 6/cage in static cages with irradiated ⅛″ Teklad corn cobbedding 7902 inside bioBubble® clean rooms that provide H.E.P.A filtered air into the bubble environment at 100 complete air changes per hour. The environment is controlled to a temperature range of 74°±4° F. and a humidity range of 30-70%. All procedures carried out in this experiment are conducted in compliance with the laws, regulations, and guidelines of the National Institutes of Health and with the approval of the TransPharm Preclinical Solutions Animal Care and Use Committee.
A clinical isolate of Escherichia coli (strain CFT073, TPPS 1041) are procured from the University of Michigan.
The organism is grown overnight at 37° C. in ambient atmosphere on trypticase soy agar plates supplemented with 5% sheep blood cells. The culture is aseptically swabbed and transferred to tubes of trypticase soy broth. The optical density is determined at 600 nm. The culture is diluted to provide an inoculum of approximately 7.5 log10 CFU per mouse in a volume of 30 μL. Instillation of the bacterial challenge constituted time 0 hour for the study. Inoculum counts are estimated before inoculation by optical density and confirmed after inoculation by dilution and back counts.
One hour prior to bacterial challenge, water is removed from animal cages. […]
The primary endpoint used to assess progress of the infection is mean bacterial burden per gram of urinary bladder tissue. […] Colony forming units (CFU) are enumerated and the total bacterial burden per gram of urinary bladder tissue homogenate is calculated.
The geometric mean CFU, along with standard error of the mean (SEM), are calculated using Microsoft Excel and bar charts are prepared for the data using GraphPad Prism v. […]

P. aeruginosa = assay: Broth microdilution MIC at incremental pH, P. aeruginosa; type: cell-based; settings: Pseudomonas aeruginosa, read-out: MIC
Procedure: (§1) MIC testing is conducted using the broth (Mueller Hinton Broth) microdilution procedures relevant to each organism group as established by the Clinical and Laboratory Standards Institute (CLSI; 3-7). MIC plates are prepared in accordance with CLSI (3-7). To prepare the test plates, automated liquid handlers are used to conduct serial dilutions and liquid transfers. Automated liquid handlers utilized in this study include the Multidrop 384 (Labsystems, Helsinki, Finland) and the Biomek 2000 (Beckman Coulter, Fullerton CA). The solution is diluted to desired pH using 1 M Citric Acid or 1 M NaOH buffer. A standardized inoculum of each test organism is prepared per CLSI methods (3, 5-7) to equal a 0.5 McFarland standard in the appropriate media followed by an additional 1:20 dilution (1:10 for anaerobes).
(§2) The plates are then inoculated with 10 μL of the diluted 0.5 McFarland suspension using the Biomek 2000 from low to high drug concentration, resulting in a final concentration of approximately 5×10^5 CFU/mL per well. An un-inoculated plate is incubated for the purpose of assessing solubility of the drug in the test media. The plates are stacked 3 to 4 high, covered with a sterile lid on the top plate, and incubated for 18 to 24 hours according to CLSI. The MIC is recorded as the lowest concentration of respective compound that inhibited visible growth of the organism.

[2] = tested on: wild type E. coli (ATCC 25922); assay: Bacterial cytological profiling at pH 4, 5.5, 7 (Example 7), E. coli; type: cell-based; settings: pH 5.5 and 7
Procedure: (§3) This bacterial cytological profiling (BCP) investigation uses methods and materials described previously by Nonejuie, P., Burkart, M., Poglianoa, K., Pogiano, J. (2013). Bacterial cytological profiling rapidly identifies the cellular pathways targeted by antibacterial molecules. Proc. Natl. Acad. Sci. U.S.A. 110(40):16169-16174. doi: 10.1073/pnas.1311066110.
(§4) For viable cell counts, cells are grown to OD600≈0.4 and diluted 1:1 into buffered or unbuffered media containing various compound concentrations. Samples are then collected and serially diluted (1:10) on a 96 well plate. Five microliters from each well are spotted on LB plates, incubated at 30° C., and viable cells are counted the next day.
(§5) Samples are collected at 10, 30, 120, and 240 min of exposure for viable cell count and imaging. For imaging, E. coli and S. aureus 200 μL of treated cells per time point are stained with 0.8 μg/mL FM4-64, 1.5 μg/mL DAPI, and 0.4 μM SYTOXGreen (Molecular Probes/Invitrogen). P. aeruginosa samples are stained 0.4 μM SYTOX Green, 28 μg/mL DAPI, and 1 μg/mL FM 4-64. Cells are transferred to an agarose pad (20% LB, 1% agarose) for imaging.
(§6) For Nu-3 and Nu-8 stocks (at pH 4, 5.5 and 7), stock concentration is 500 mg/mL. For pH 4, the stocks are prepared by dissolving Nu-3 in 25 mM citrate buffer and Nu-8 in 350 mM citric acid. […]

[3] = tested on: methicillin susceptible S. aureus (ATCC 29213); assay: Bacterial cytological profiling at pH 4, 5.5, 7 (Example 7), S. aureus; type: cell-based; settings: 125 mg/mL
Procedure: as §3, §4, §5, §6

E. coli = assay: Broth microdilution MIC at incremental pH, E. coli; type: cell-based; settings: Escherichia coli, read-out: MIC
Procedure: as §1, §2

| Compound | pKa (pKa measurement) | average bladder CFU burden [1] | MIC (P. aeruginosa; pH 1) | MIC (P. aeruginosa; pH 3) | MIC (P. aeruginosa; pH 5) | MIC (P. aeruginosa; pH 7) | effect on cell permeability, cell viability and growth [2] | cell growth [3] | MIC (E. coli; pH 1) | MIC (E. coli; pH 3) | MIC (E. coli; pH 5) | MIC (E. coli; pH 7) |
| --- | --- | --- | --- | --- | --- | --- | --- | --- | --- | --- | --- | --- |
| COC1[C@@H](OP(=O)(O)OCCCCO)[C@@H](COP(=O)(O)OCCCCO)O[C@H]1n1ccc(=O)[nH]c1=O (stereo partly shown) [Nu-2] | 2.3 |  |  |  |  |  |  |  |  |  |  |  |
| gentamicin [reference compound] |  | 6.1 log10 CFU |  |  |  |  |  |  |  |  |  |  |
| CCCCOP(=O)(O)OC[C@H]1O[C@@H](n2cc(C)c(=O)[nH]c2=O)C[C@H]1OP(=O)(O)OCCCC [Nu-4] | 2.3 |  |  |  |  |  |  |  |  |  |  |  |
| CCCCOP(=O)(O)OC[C@H]1O[C@@H](n2cc(C)c(=O)[nH]c2=O)C[C@@H]1OP(=O)(O)OCCCC [Nu-3] |  |  | 12.5 mg/mL (≈ 24.3 mM) | > 100 mg/mL | > 100 mg/mL | > 100 mg/mL | ineffective | slight reduction in cell growth resembling that at pH 4 alone | 12.5 mg/mL (≈ 24.3 mM) | > 100 mg/mL | > 100 mg/mL | > 100 mg/mL |
| CCCCOP(=O)(O)OCCOCCOP(=O)(O)OCCCC [Nu-5] | 2.28 |  | 6.25 mg/mL (≈ 16.5 mM) | 100 mg/mL (≈ 264 mM) | 100 mg/mL (≈ 264 mM) | 100 mg/mL (≈ 264 mM) |  |  | 6.25 mg/mL (≈ 16.5 mM) | 100 mg/mL (≈ 264 mM) | 100 mg/mL (≈ 264 mM) | 100 mg/mL (≈ 264 mM) |
